The values that follow come from publication PMC8890542, “Discovery of novel paeonol-based derivatives against skin inflammation in vitro and in vivo” (Journal of Enzyme Inhibition and Medicinal Chemistry, 2022).

Some results are limits rather than exact numbers.

One series concerns LPS-induced nitric oxide production in RAW264.7 cells. Briefly: LPS-induced NO production, Griess Reagent assay. In kind it is cell-based, mouse. The conditions noted are these: 10 µM. As to the method:
RAW264.7 cells (7 × 10^4 cells/well) were seeded into 48-well plate and used for experiments after 24 h. […] After 24 h collect cell supernatant, NO production was measured using Griess Reagent assay (Beyotime). Griess reagent were mixed at a ratio of 1:1, and reacted at room temperature for 15 min. Measurement of absorbance at […] with enzyme reader. At least three independent experiments were performed for the determination of IC50 values, which were shown as mean ± SD. All experimental data were analysed by using GraphPad Prism software, version 8.0 (GraphPad Inc.).
For orientation: Griess reagent forms a coloured azo dye with nitrite.
As to `COc1cc(O)c(C(C)=O)cc1NC(=O)Nc1ccccc1C` [Compound B3, 1–(5-acetyl-4-hydroxy-2-methoxyphenyl)-3-(o-tolyl) urea], the “Inhibitory activity on LPS-induced NO secretion, in words” value is on record as “weak to moderate inhibitory activity”.

`COc1ccccc1NC(=O)Nc1cc(C(C)=O)c(O)cc1OC` [Compound B9, 1–(5-acetyl-4-hydroxy-2-methoxyphenyl)-3–(2-methoxyphenyl) urea]: the “Inhibitory activity on LPS-induced NO secretion, in words” value was “weak to moderate inhibitory activity”.

Staying with this series, now noted: Mus musculus, LPS (0.5 μg/mL) 24 h.
As to `COc1cc(O)c(C(C)=O)cc1NC(=O)NCC(F)(F)F` [Compound A5, 1–(5-acetyl-4-hydroxy-2-methoxyphenyl)-3–(2,2,2-trifluoroethyl) urea], the IC50 (in general, the point on the concentration scale where inhibition reaches its midpoint) is over 10 µM.

Turning to `COc1ccc(CCNC(=O)Nc2cc(C(C)=O)c(O)cc2OC)cc1` [Compound D3, 1–(5-acetyl-4-hydroxy-2-methoxyphenyl)-3–(4-methoxyphenethyl) urea], the half-inhibitory concentration (IC50) is over 10 µM.

`COc1cc(O)c(C(C)=O)cc1NC(=O)N(C)C` [Compound A7, 3–(5-acetyl-4-hydroxy-2-methoxyphenyl)-1,1-dimethylurea] yielded an IC50 of over 10 µM.

For the compound `COc1cc(O)c(C(C)=O)cc1NC(=O)Nc1ccc(C(F)(F)F)cc1` [Compound B11, 1–(5-acetyl-4-hydroxy-2-methoxyphenyl)-3–(4-(trifluoromethyl)phenyl) urea], the half-maximal inhibitory concentration (IC50) was 5.08 µM.

For `CCNC(=O)Nc1cc(C(C)=O)c(O)cc1OC` [Compound A6, 1–(5-acetyl-4-hydroxy-2-methoxyphenyl)-3-ethylurea], the IC50 was over 10 µM.

For the compound `COc1cc(O)c(C(C)=O)cc1NC(=O)N1CCSC1` [Compound A14, N-(5-acetyl-4-hydroxy-2-methoxyphenyl) thiazolidine-3-carboxamide], the concentration for half-maximal inhibition (IC50) was over 10 µM.

In turn, `COc1cc(O)c(C(C)=O)cc1NC(=O)NC1CC1` [Compound A9, 1–(5-acetyl-4-hydroxy-2-methoxyphenyl)-3-cyclopropylurea] displayed an IC50 of over 10 µM.

`COc1ccccc1CNC(=O)Nc1cc(C(C)=O)c(O)cc1OC` [Compound C6, 1–(5-acetyl-4-hydroxy-2-methoxyphenyl)-3–(2-methoxybenzyl) urea] gave a half-inhibitory concentration (IC50) of over 10 µM.

Take `COc1cc(O)c(C(C)=O)cc1NC(=O)Nc1ccccc1C` [Compound B3, 1–(5-acetyl-4-hydroxy-2-methoxyphenyl)-3-(o-tolyl) urea]: the IC50 is over 10 µM.

For `COc1ccccc1NC(=O)Nc1cc(C(C)=O)c(O)cc1OC` [Compound B9, 1–(5-acetyl-4-hydroxy-2-methoxyphenyl)-3–(2-methoxyphenyl) urea], half-maximal inhibition (IC50) was put at 6.88 µM.

The series is the same for the next values; noted with them: Mus musculus, compounds 10 μM, 1 h, then LPS (0.5 μg/mL) 24 h, read-out: Inhibition rate±SD (%) against NO production.
In the case of `COc1cc(O)c(C(C)=O)cc1NC(=O)NCC(F)(F)F` [Compound A5, 1–(5-acetyl-4-hydroxy-2-methoxyphenyl)-3–(2,2,2-trifluoroethyl) urea], the inhibition (usually the drop in the measured response relative to a control, in per cent) at 10 µM amounted to 23.1 ± 3.25%.

Take `COc1ccc(CCNC(=O)Nc2cc(C(C)=O)c(O)cc2OC)cc1` [Compound D3, 1–(5-acetyl-4-hydroxy-2-methoxyphenyl)-3–(4-methoxyphenethyl) urea]: the inhibition at 10 µM worked out at 33.3 ± 3.18%.

On to `COc1cc(O)c(C(C)=O)cc1NC(=O)N(C)C` [Compound A7, 3–(5-acetyl-4-hydroxy-2-methoxyphenyl)-1,1-dimethylurea], for which the inhibition at 10 µM stood at 33.7 ± 5.02%.

As to `COc1cc(O)c(C(C)=O)cc1NC(=O)Nc1ccc(C(F)(F)F)cc1` [Compound B11, 1–(5-acetyl-4-hydroxy-2-methoxyphenyl)-3–(4-(trifluoromethyl)phenyl) urea], the inhibition at 10 µM came out at 60.9 ± 4.12%.

With `CCNC(=O)Nc1cc(C(C)=O)c(O)cc1OC` [Compound A6, 1–(5-acetyl-4-hydroxy-2-methoxyphenyl)-3-ethylurea], the inhibition at 10 µM was found to be 16.2 ± 6.01%.

Consider `COc1cc(O)c(C(C)=O)cc1NC(=O)N1CCSC1` [Compound A14, N-(5-acetyl-4-hydroxy-2-methoxyphenyl) thiazolidine-3-carboxamide], for which the inhibition at 10 µM was 24.1 ± 5.16%.

On to `COc1cc(O)c(C(C)=O)cc1NC(=O)NC1CC1` [Compound A9, 1–(5-acetyl-4-hydroxy-2-methoxyphenyl)-3-cyclopropylurea], for which the inhibition at 10 µM came out at 41 ± 3.15%.

As for `COc1ccccc1CNC(=O)Nc1cc(C(C)=O)c(O)cc1OC` [Compound C6, 1–(5-acetyl-4-hydroxy-2-methoxyphenyl)-3–(2-methoxybenzyl) urea], the inhibition at 10 µM was found to be 8.12 ± 6.12%.

Turning to `COc1cc(O)c(C(C)=O)cc1NC(=O)Nc1ccccc1C` [Compound B3, 1–(5-acetyl-4-hydroxy-2-methoxyphenyl)-3-(o-tolyl) urea], the inhibition at 10 µM is 47.2 ± 6.12%.

As for `COc1ccccc1NC(=O)Nc1cc(C(C)=O)c(O)cc1OC` [Compound B9, 1–(5-acetyl-4-hydroxy-2-methoxyphenyl)-3–(2-methoxyphenyl) urea], the inhibition at 10 µM turned out to be 56.7 ± 4.28%.

Tested on in a further series: not listed separately
Description: Cell viability assay (MTT), LO2. In kind it is cell-based. The note with it: human, LO2 cells, read-out: Cytotoxicity IC50 with LO2.
Consider `COc1cc(O)c(C(C)=O)cc1NC(=O)NCC(F)(F)F` [Compound A5, 1–(5-acetyl-4-hydroxy-2-methoxyphenyl)-3–(2,2,2-trifluoroethyl) urea], for which the IC50 at 24 h was over 100 µM.

Regarding `COc1ccc(CCNC(=O)Nc2cc(C(C)=O)c(O)cc2OC)cc1` [Compound D3, 1–(5-acetyl-4-hydroxy-2-methoxyphenyl)-3–(4-methoxyphenethyl) urea], the IC50 at 24 h was over 100 µM.

In the case of `COc1cc(O)c(C(C)=O)cc1NC(=O)N(C)C` [Compound A7, 3–(5-acetyl-4-hydroxy-2-methoxyphenyl)-1,1-dimethylurea], the IC50 at 24 h was over 100 µM.

Regarding `COc1cc(O)c(C(C)=O)cc1NC(=O)Nc1ccc(C(F)(F)F)cc1` [Compound B11, 1–(5-acetyl-4-hydroxy-2-methoxyphenyl)-3–(4-(trifluoromethyl)phenyl) urea], the IC50 at 24 h was over 100 µM.

Turning to `CCNC(=O)Nc1cc(C(C)=O)c(O)cc1OC` [Compound A6, 1–(5-acetyl-4-hydroxy-2-methoxyphenyl)-3-ethylurea], the 50% inhibitory concentration (IC50) at 24 h is over 100 µM.

Take `COc1cc(O)c(C(C)=O)cc1NC(=O)N1CCSC1` [Compound A14, N-(5-acetyl-4-hydroxy-2-methoxyphenyl) thiazolidine-3-carboxamide]: the IC50 at 24 h was over 100 µM.

Consider `COc1cc(O)c(C(C)=O)cc1NC(=O)NC1CC1` [Compound A9, 1–(5-acetyl-4-hydroxy-2-methoxyphenyl)-3-cyclopropylurea], for which the 50% inhibitory concentration (IC50) at 24 h is over 100 µM.

On to `COc1ccccc1CNC(=O)Nc1cc(C(C)=O)c(O)cc1OC` [Compound C6, 1–(5-acetyl-4-hydroxy-2-methoxyphenyl)-3–(2-methoxybenzyl) urea], for which the IC50 at 24 h was over 100 µM.

As for `COc1cc(O)c(C(C)=O)cc1NC(=O)Nc1ccccc1C` [Compound B3, 1–(5-acetyl-4-hydroxy-2-methoxyphenyl)-3-(o-tolyl) urea], the IC50 at 24 h was over 100 µM.

With `COc1ccccc1NC(=O)Nc1cc(C(C)=O)c(O)cc1OC` [Compound B9, 1–(5-acetyl-4-hydroxy-2-methoxyphenyl)-3–(2-methoxyphenyl) urea], the IC50 at 24 h is over 100 µM.

Tested on in another series: not listed separately
Briefly: Cell viability assay (MTT), RAW264.7. The conditions noted are these: mouse, RAW264.7 cells, read-out: Cytotoxicity IC50 with RAW264.7. In kind it is cell-based, mouse. Here is the method:
RAW264.7 cells (1 × 10^4 cells/well) were seeded into 96-well plate and used for experiments after 24 h. Compounds (4 µM, 20 µM and 100 µM) treated cell for 24 h. Forty microliters of MTT solution (5 mg/mL, Sigma-Aldrich) was then added and incubated for an additional 4 h. After 4 h, cell culture supernatants were removed and DMSO (150 µL) was added into per well for dissolving the resulting crystals. Shaking about 1 0 ∼ 15 min and the absorbance at 492 nm was measured by a microplate reader (MQX200, Bio-Tek, Winooski, VT). At least three independent experiments were performed for the determination of IC50 values, which were shown as mean ± SD. All experimental data were analysed by using GraphPad Prism software, version 8.0 (GraphPad Inc.).
On to `COc1cc(O)c(C(C)=O)cc1NC(=O)NCC(F)(F)F` [Compound A5, 1–(5-acetyl-4-hydroxy-2-methoxyphenyl)-3–(2,2,2-trifluoroethyl) urea], for which the IC50 at 24 h was over 100 µM.

Turning to `COc1ccc(CCNC(=O)Nc2cc(C(C)=O)c(O)cc2OC)cc1` [Compound D3, 1–(5-acetyl-4-hydroxy-2-methoxyphenyl)-3–(4-methoxyphenethyl) urea], the concentration for half-maximal inhibition (IC50) at 24 h was over 100 µM.

Consider `COc1cc(O)c(C(C)=O)cc1NC(=O)N(C)C` [Compound A7, 3–(5-acetyl-4-hydroxy-2-methoxyphenyl)-1,1-dimethylurea], for which the IC50 at 24 h is over 100 µM.

For the compound `COc1cc(O)c(C(C)=O)cc1NC(=O)Nc1ccc(C(F)(F)F)cc1` [Compound B11, 1–(5-acetyl-4-hydroxy-2-methoxyphenyl)-3–(4-(trifluoromethyl)phenyl) urea], the IC50 at 24 h was over 100 µM.

For the compound `CCNC(=O)Nc1cc(C(C)=O)c(O)cc1OC` [Compound A6, 1–(5-acetyl-4-hydroxy-2-methoxyphenyl)-3-ethylurea], the IC50 at 24 h was over 100 µM.

`COc1cc(O)c(C(C)=O)cc1NC(=O)N1CCSC1` [Compound A14, N-(5-acetyl-4-hydroxy-2-methoxyphenyl) thiazolidine-3-carboxamide]: the concentration for half-maximal inhibition (IC50) at 24 h was over 100 µM.

Regarding `COc1cc(O)c(C(C)=O)cc1NC(=O)NC1CC1` [Compound A9, 1–(5-acetyl-4-hydroxy-2-methoxyphenyl)-3-cyclopropylurea], the half-maximal inhibitory concentration (IC50) at 24 h is over 100 µM.

On to `COc1ccccc1CNC(=O)Nc1cc(C(C)=O)c(O)cc1OC` [Compound C6, 1–(5-acetyl-4-hydroxy-2-methoxyphenyl)-3–(2-methoxybenzyl) urea], for which the half-maximal inhibitory concentration (IC50) at 24 h was over 100 µM.

On to `COc1cc(O)c(C(C)=O)cc1NC(=O)Nc1ccccc1C` [Compound B3, 1–(5-acetyl-4-hydroxy-2-methoxyphenyl)-3-(o-tolyl) urea], for which the IC50 at 24 h is over 100 µM.

Regarding `COc1ccccc1NC(=O)Nc1cc(C(C)=O)c(O)cc1OC` [Compound B9, 1–(5-acetyl-4-hydroxy-2-methoxyphenyl)-3–(2-methoxyphenyl) urea], the concentration for half-maximal inhibition (IC50) at 24 h is over 100 µM.

Tested on in another series: not given
Experiment: not given
Conditions: not given
With `COc1cc(O)c(C(C)=O)cc1NC(=O)NCC(F)(F)F` [Compound A5, 1–(5-acetyl-4-hydroxy-2-methoxyphenyl)-3–(2,2,2-trifluoroethyl) urea], the melting point (usually the temperature, or range, at which the solid turns liquid) fell in the range of 232 to 234 °C.

With `COc1ccc(CCNC(=O)Nc2cc(C(C)=O)c(O)cc2OC)cc1` [Compound D3, 1–(5-acetyl-4-hydroxy-2-methoxyphenyl)-3–(4-methoxyphenethyl) urea], the melting point is 180 to 181 °C.

The compound `COc1cc(O)c(C(C)=O)cc1NC(=O)N(C)C` [Compound A7, 3–(5-acetyl-4-hydroxy-2-methoxyphenyl)-1,1-dimethylurea] registered a melting point of 176 to 177 °C.

The compound `CCNC(=O)Nc1cc(C(C)=O)c(O)cc1OC` [Compound A6, 1–(5-acetyl-4-hydroxy-2-methoxyphenyl)-3-ethylurea] had a melting point of 211 to 212 °C.

Consider `COc1cc(O)c(C(C)=O)cc1NC(=O)N1CCSC1` [Compound A14, N-(5-acetyl-4-hydroxy-2-methoxyphenyl) thiazolidine-3-carboxamide], for which the melting point was 172 to 174 °C.

As to `COc1cc(O)c(C(C)=O)cc1NC(=O)NC1CC1` [Compound A9, 1–(5-acetyl-4-hydroxy-2-methoxyphenyl)-3-cyclopropylurea], the melting point is 191 to 192 °C.

In the case of `COc1cc(O)c(C(C)=O)cc1NC(=O)Nc1ccccc1C` [Compound B3, 1–(5-acetyl-4-hydroxy-2-methoxyphenyl)-3-(o-tolyl) urea], the melting point fell in the range of 238 to 239 °C.

In the case of `COc1ccccc1NC(=O)Nc1cc(C(C)=O)c(O)cc1OC` [Compound B9, 1–(5-acetyl-4-hydroxy-2-methoxyphenyl)-3–(2-methoxyphenyl) urea], the melting point lay in the range of 228 to 229 °C.
